Measurements reported in ChEMBL document CHEMBL2095176, “GSK Tuberculosis Screening Data”.
In brackets after ≈: the same amount, converted by molar mass.

Legend:
[1] = tested on: Mycobacterium tuberculosis H37Rv; assay: microbe, parasite or virus in culture
Description: GSK_TB: Intracellular minimum inhibitory concentration (MIC) H37Rv assay

[2] = physchem; conditions: buffer, pH 7.4
Description: GSK_TB: GSK in-house hydrophobicity assay at pH7.4 (logD)

[3] = physchem; conditions: octanol/water
Description: GSK_TB: GSK in-house hydrophobicity assay (logP)

[4] = physchem; conditions: phosphate buffered saline, pH 7.4

SMILES	MIC90 [1] [µM]	logD [2]	logP [3]	solubility kinetic [4] [µM]
O=C(NNC(=O)c1ccc([N+](=O)[O-])o1)c1ccc2ccccc2c1	8.32 (≈ 2.71 µg/mL)	3.02	3.48	1 (≈ 0.325 µg/mL)
CC(=O)N1CCc2cc3nc(C)cc(C)c3cc21	3.7 (≈ 0.889 µg/mL)	2.64	2.65	309 (≈ 74.3 µg/mL)
Cc1nc2ccccn2c1C(=O)NCc1ccc2c(c1)OCO2	2.9 (≈ 0.897 µg/mL)	3.02	3.02	357 (≈ 110 µg/mL)
FC(F)(F)c1nnc2ccc(Cl)nn12	9.1 (≈ 2.03 µg/mL)	3.11	3.1	344 (≈ 76.6 µg/mL)
CNc1nc(SC)nc2ccsc12	3.4 (≈ 0.718 µg/mL)	3.3	3.3	439 (≈ 92.8 µg/mL)
Brc1cncc(-c2cc(NCCCn3ccnc3)nc(-c3ccccc3)n2)c1	5.19 (≈ 2.26 µg/mL)	5.53	5.83	15 (≈ 6.53 µg/mL)
Cl.O=C(c1ccco1)N(CCCn1ccnc1)c1nc2c(Cl)cccc2s1	8.41	5.25	5.63	21
Clc1ccc(CCNc2cc(-c3ccccc3)nc3ncnn23)cc1	1.5 (≈ 0.525 µg/mL)	5.53	5.73	1 (≈ 0.35 µg/mL)
Cc1n[nH]c(C)c1S(=O)(=O)NCc1nc(NCCCc2ccccc2)c2ccccc2n1	1.8 (≈ 0.811 µg/mL)	4.32	4.52	240 (≈ 108 µg/mL)
COc1cc(C(F)(F)F)nc2ccc(C)c(N)c12	5.3 (≈ 1.36 µg/mL)	4.97	5.13	446 (≈ 114 µg/mL)
O=C(c1cc2c(s1)CCC2)N1CCN(Cc2ccc3c(c2)OCO3)CC1	5.3 (≈ 1.96 µg/mL)	6.09	6.34	117 (≈ 43.3 µg/mL)
CNc1nc(SCC(=O)N(C)Cc2ccc(Cl)s2)nc2ccccc12	5.62 (≈ 2.21 µg/mL)	5.07	5.23	56 (≈ 22 µg/mL)
O=C(NCc1ccc(Oc2ccccc2)cc1)c1c(C(F)(F)F)nc2ccccn12	0.2 (≈ 0.0823 µg/mL)	6.28	6.58	1 (≈ 0.411 µg/mL)
Cc1nc2ccccn2c1C(=O)NCc1ccc(Cl)cc1	0.4 (≈ 0.12 µg/mL)	4.04	4.12	405 (≈ 121 µg/mL)
CC(C)(C)C(=O)CC1(O)Oc2ccccc2N=C1C=C(O)C(C)(C)C (stereo not given)	4.03 (≈ 1.39 µg/mL)	7.49	7.84	75 (≈ 25.9 µg/mL)
O=C(C1CCN(c2nnc(-n3cccc3)s2)CC1)N1CCC(Cc2ccccc2)CC1	4.2 (≈ 1.83 µg/mL)	6.37	6.78	1 (≈ 0.436 µg/mL)
COc1cc(Nc2ccccc2)ccc1NS(=O)(=O)c1c(C)noc1C	6.1 (≈ 2.28 µg/mL)	5.53	5.78	53 (≈ 19.8 µg/mL)
Cc1nc2ccccn2c1C(=O)Nc1ccc(C(C)(C)C)cc1	6.2 (≈ 1.91 µg/mL)	5.81	6.03	85 (≈ 26.1 µg/mL)
O=C(C=Cc1cccs1)N1CCN(Cc2ccc(Br)s2)CC1	1.9 (≈ 0.755 µg/mL)	6.47	6.74	152 (≈ 60.4 µg/mL)
CN1CCN(c2ccc(C(F)(F)F)cc2NC(=O)c2ccccn2)CC1	1.91 (≈ 0.694 µg/mL)	6.19	6.84	182 (≈ 66.3 µg/mL)

SMILES	MIC90 [1] [µM]	logD [2]	logP [3]	solubility kinetic [4] [µM]
Cc1ccc2nc(C(F)(F)F)c(C(=O)NCc3cccc(OC(C)C)c3)n2c1	2.1 (≈ 0.822 µg/mL)	6.19	6.43	1 (≈ 0.391 µg/mL)
N#Cc1ccc2c(c1)CCN(CCCSc1ccnc3cc(C(F)(F)F)ccc13)CC2	2.4 (≈ 1.06 µg/mL)	7.96	8.64	1 (≈ 0.442 µg/mL)
CCOc1ccc(OCc2ccc(C(=O)NNC(=O)c3ccc([N+](=O)[O-])o3)cc2)cc1	2.5 (≈ 1.06 µg/mL)	4.32	4.88	1 (≈ 0.425 µg/mL)
O=C(NCc1ccccc1F)N1CCN(Cc2ccc(Br)s2)CC1	6.6 (≈ 2.72 µg/mL)	5.72	5.93	60 (≈ 24.7 µg/mL)
O=C(N[C@@H](Cc1ccccc1)C(=O)Nc1ccccc1N1CCOCC1)c1cccs1	6.6 (≈ 2.87 µg/mL)	5.53	5.78	52 (≈ 22.6 µg/mL)
CSc1ccc(-c2nnc(NC(=O)c3ccc(Cl)s3)o2)cc1	6.61 (≈ 2.32 µg/mL)	3.76	6.07	67 (≈ 23.6 µg/mL)
OC1(c2ccccc2)Oc2ccccc2N=C1c1ccccc1 (stereo not given)	6.68 (≈ 2.01 µg/mL)	6.09	6.19	263 (≈ 79.3 µg/mL)
COc1ccc(CC(=O)Nc2c(-c3cccs3)nc3cc(C)ccn23)cc1	6.8 (≈ 2.57 µg/mL)	3.95	4.02	87 (≈ 32.8 µg/mL)
Cc1ccc2nc(C(F)(F)F)c(C(=O)NCc3cc(Cl)cc(Cl)c3)n2c1	0.9 (≈ 0.362 µg/mL)	6.65	7.04	1 (≈ 0.402 µg/mL)
Cc1ccc2nc(C(F)(F)F)c(C(=O)NCc3cccs3)n2c1	0.9 (≈ 0.305 µg/mL)	4.79	4.98	17 (≈ 5.77 µg/mL)
CCOc1ccc(-c2nc(CNCCc3ccc(F)cc3)cs2)cc1.O=C(O)C(=O)O	1.07	6.09	7.45	159
Cc1ccc2nc(C(F)(F)F)c(C(=O)NCc3ccc4c(c3)OCO4)n2c1	1.1 (≈ 0.415 µg/mL)	4.79	4.98	22 (≈ 8.3 µg/mL)
COc1ccc2nc(C)cc(OCC(=O)NCc3ccccc3)c2c1	1.1 (≈ 0.37 µg/mL)	3.86	3.92	96 (≈ 32.3 µg/mL)
CCc1c(C)nc(-n2nc(C)cc2NC(=O)c2ccccc2SC)[nH]c1=O	1.15 (≈ 0.44 µg/mL)	5.63	6.48	1 (≈ 0.383 µg/mL)
Cc1ccc2nc(C)c(C(=O)NCc3ccco3)n2c1	1.3 (≈ 0.35 µg/mL)	3.02	3.02	277 (≈ 74.6 µg/mL)
CCN(Cc1ccc2c(c1)OCO2)C(=O)CSc1nc(NC)c2ccccc2n1	2.8 (≈ 1.15 µg/mL)	4.69	4.83	74 (≈ 30.4 µg/mL)
CCc1ccc(Nc2nnc(SCc3cc(C)on3)s2)cc1	2.8 (≈ 0.931 µg/mL)	5.72	5.98	1 (≈ 0.332 µg/mL)
CN1CCN(c2cc(-c3ccc(F)cc3)nc(-c3ccncc3)n2)CC1	7.41 (≈ 2.59 µg/mL)	5.07	5.73	44 (≈ 15.4 µg/mL)
COc1ccc(-c2ccc(Nc3cccc(S(=O)(=O)CCNCCc4cccs4)c3)nc2)cn1	7.59 (≈ 3.75 µg/mL)	5.63	5.83	1 (≈ 0.495 µg/mL)
Cc1ccc2nc(Cl)c(CNCc3cccs3)cc2c1	7.59 (≈ 2.3 µg/mL)	6.84	7.23	44 (≈ 13.3 µg/mL)

SMILES	MIC90 [1] [µM]	logD [2]	logP [3]	solubility kinetic [4] [µM]
Cc1ccc2nc(C)c(C(=O)NCC(C)C)n2c1	7.67 (≈ 1.88 µg/mL)	3.39	3.41	287 (≈ 70.4 µg/mL)
Cc1ccc(SCCNC(=O)c2c(-c3ccccc3)noc2C)cc1	7.76 (≈ 2.74 µg/mL)	6.37	6.68	50 (≈ 17.6 µg/mL)
O=C(Nc1nc(-c2ccccn2)cs1)c1cncn1-c1ccccc1	7.94 (≈ 2.76 µg/mL)	3.39	3.38	118 (≈ 41 µg/mL)
COc1ccc(-c2cc(NC(=O)c3ccc(F)cc3Cl)ccc2OC)cc1	8.13 (≈ 3.14 µg/mL)	6.28	6.48	1 (≈ 0.386 µg/mL)
O=C(NCc1cc(Cl)cc(Cl)c1)c1c(C(F)(F)F)nc2ccccn12	3.1 (≈ 1.2 µg/mL)	6.09	6.48	1 (≈ 0.388 µg/mL)
C=CCNc1nc(SC)nc2ccccc12	3.2 (≈ 0.74 µg/mL)	4.97	5.13	279 (≈ 64.5 µg/mL)
O=C(NCc1ccc2c(c1)OCO2)c1c(C(F)(F)F)nc2ccccn12	3.3 (≈ 1.2 µg/mL)	4.23	4.38	115 (≈ 41.8 µg/mL)
Cn1ccnc1CNCCS(=O)(=O)c1cccc(Nc2ccc(-c3cccc(F)c3)cn2)c1	4.68 (≈ 2.18 µg/mL)	4.41	4.62	64 (≈ 29.8 µg/mL)
Cc1ccc2nc(C(F)(F)F)c(C(=O)NCc3ccc(C)o3)n2c1	3.43 (≈ 1.16 µg/mL)	4.97	5.18	259 (≈ 87.4 µg/mL)
c1csc(-c2nnc(Sc3ccnc(N4CCN(c5ccncc5)CC4)n3)n2CCCN2CCOCC2)c1	3.43 (≈ 1.88 µg/mL)	2.08	3.12	185 (≈ 102 µg/mL)
CC(C)n1ncc2c(C(=O)NCC(c3cccs3)N3CCOCC3)cc(-c3ccccc3)nc21 (stereo not given)	4.8 (≈ 2.28 µg/mL)	7.21	7.54	1 (≈ 0.476 µg/mL)
CC(C)c1ccc(-c2cncc(N3CCN(c4ccncc4)CC3)n2)cc1	8.32 (≈ 2.99 µg/mL)	4.79	6.74	89 (≈ 32 µg/mL)
O=C(CCCSc1ccccc1)NNC(=O)c1cccs1	8.32 (≈ 2.67 µg/mL)	3.67	3.77	559 (≈ 179 µg/mL)
COc1ccc(-c2nc(-c3cccc(NC(=O)Cc4ccc(F)cc4)c3)no2)cc1OC	3.7 (≈ 1.6 µg/mL)	6.37	6.68	102 (≈ 44.2 µg/mL)
Cc1ccc2nc(C(F)(F)F)c(C(=O)NCc3ccco3)n2c1	3.89 (≈ 1.26 µg/mL)	4.32	4.48	159 (≈ 51.4 µg/mL)
N#Cc1nc(-c2ccccc2)oc1S(=O)(=O)c1ccc(Cl)cc1	8.9 (≈ 3.07 µg/mL)	7.12	7.48	1 (≈ 0.345 µg/mL)
CN1CCN(c2cc(-c3ccncc3)nc(-c3ccccc3)n2)CC1	9.02 (≈ 2.99 µg/mL)	4.88	5.54	379 (≈ 126 µg/mL)
N=C(Nc1nc(-c2ccccn2)cc2ccccc12)c1cccc(Cl)c1	4.5 (≈ 1.61 µg/mL)	8.24	8.64	1 (≈ 0.359 µg/mL)
Cc1occc1C(=O)Nc1nc(-c2ccccn2)nc2ccsc12	4 (≈ 1.35 µg/mL)	4.79	4.93	105 (≈ 35.3 µg/mL)
Cc1ccc2[nH]c(C3CCCNC3)c(-c3ccncc3)c2c1 (stereo not given)	7.67 (≈ 2.24 µg/mL)	2.18	3.72	267 (≈ 77.8 µg/mL)
